# Article PMC10647553, “Evaluating the Anti-Melanoma Effects and Toxicity of Cinnamaldehyde Analogues” (Molecules, 2023)
# Where two headings read alike, the source gives them in different places.
# What was measured:
# A375 cells [1] = test: A375 xenograft in nude mice; type: in vivo, BALB/c-nude mice
# Protocol: The 8-week-old female BALB/c-nude mice (18–20 g, specific pathogen-free, SPF) were obtained from the Laboratory Animal Experimental Center of the Academy of Military Medical Sciences (SCXK2012-0004, Beijing, China), and were injected with A375 cells and siENO1-A375 cells (1 × 10^7), respectively. One weeks after the tumor formation, four groups were set up: the “negative control (NC)” group (A375 cells, injected with PBS/day); “siENO1” group (siENO1-A375 cells, injected with PBS/day); “Dacarbazine” group (A375 cells, injected with 10 mg/kg/day dacarbazine); and the “CAD-14” group (A375 cells, injected with 5 mg/kg/day CAD-14). The tumor volume was measured every three days and calculated as length × width^2/2. After two weeks, the mice were sacrificed.
# Tumor tissues were isolated from the mice after sacrifice. Then, the tissues were fixed in 4% paraformaldehyde and embedded in paraffin. For immunohistochemistry staining, tissues were stained with Ki67 (GB111141, Servicebio, Wuhan, China). For immunofluorescent staining, tissues were stained with ENO1 (bs-3978R, Bioss, Beijing, China).
# Figure 5 CAD-14 inhibited the growth of A375 cells in vivo. (A–C) The A375 cells were transfected with three different recombinant ENO1 retroviral vectors and an NC virus for 72 h; the effect of recombinant retrovirus on ENO1 expression were evaluated via fluorescence photography and Western blotting. Histograms show the intensity ratio. (n = 3). Values represent the means ± SD. ** p < 0.01 versus “NC” group. (D–F) Cells were injected subcutaneously into nude mice. Then, they were treated with Dacarbazine (10 mg/kg/day, as a positive control) or CAD-14 (5 mg/kg/day) for two weeks (the red arrow at day 7 represents the first day of treatment). The tumor volume was calculated (n = 5). (G,H) Immunofluorescent staining of Ki67 and ENO1 to detect proliferation ability and expression of ENO1 in tumor tissues, respectively. Values represent the means ± SD. * p < 0.05 versus “PBS” group.
# A375 cells [2] = test: CCK-8 cell viability, A375 melanoma cells; type: cell-based; details: Homo sapiens, A-375, 0–50 µM, 72 h
# Protocol: (§1) The HepG-2, HUVEC, L-02, HK-2, A375, A549, H8, U251, HeLa, Cal-27, and PANC-1 cells were maintained in a DMEM medium. The TSSCA, SK-MEL-1, and […] cells were cultured in an RPMI-1640 medium, and the A875 cells were cultured in a MEM medium. All cells were supplemented with 10% fetal bovine serum, 100 units/mL penicillin, and streptomycin at 37 °C in 5% CO2. The Cell Counting Kit-8 (CCK-8, bs-0764P, Bioss, Beijing, China) method was used to assay the cytotoxicity.
# (§2) Figure 2 Effect of CA analogues in melanoma cells. (A–D) The different melanoma cell lines were treated with 0–50 µM analogues for 72 h, and then IC50 value was assayed (A dashed blue line: 50% inhibition rate; red box: analogues with high activity).
# A875 cells = test: CCK-8 cell viability, A875 melanoma cells; type: cell-based; details: 0–50 µM, 72 h
# Protocol: as §1, §2
# ENO1 = target: T1, ENO1 (Homo sapiens, UniProt P06733); test: Western blot and cellular thermal shift assay (CETSA) of ENO1; type: binding
# T1 construct: endogenous in cells; host or cells: A375 cells (whole-cell extracts or cell lysates)
# T1 sequence (P06733 whole entry): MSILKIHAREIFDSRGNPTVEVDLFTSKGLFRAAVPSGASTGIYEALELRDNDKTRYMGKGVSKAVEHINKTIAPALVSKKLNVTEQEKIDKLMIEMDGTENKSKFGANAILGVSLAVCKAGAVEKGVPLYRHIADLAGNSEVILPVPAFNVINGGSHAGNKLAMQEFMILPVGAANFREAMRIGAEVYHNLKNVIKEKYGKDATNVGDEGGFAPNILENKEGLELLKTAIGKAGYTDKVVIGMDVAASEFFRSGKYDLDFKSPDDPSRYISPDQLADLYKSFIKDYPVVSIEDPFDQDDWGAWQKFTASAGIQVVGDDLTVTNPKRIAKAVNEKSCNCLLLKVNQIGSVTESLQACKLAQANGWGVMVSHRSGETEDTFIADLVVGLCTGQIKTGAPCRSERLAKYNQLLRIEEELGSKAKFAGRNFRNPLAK
# Protocol: (§3) The A375 cells were treated with CAD-14 (0–0.8 µM), alone or with indicated agents, for 24 h. Whole-cell extracts were loaded for SDS-PAGE gels depending on the target protein sizes, and were explored with protein-specific antibodies followed by HRP-conjugated secondary antibodies. Bands corresponding to the antibodies were detected via ECL chemiluminescence.
# In A375 cell lysates, CAD-14 (0.4 μM) was added for 24 h at different temperatures. Western blotting was used to quantify the effects on ENO1 protein levels.
# (§4) Figure 4 Validation of the CAD-14 anti-melanoma pathway. (A) Cells were treated with 0–0.8 µM CAD-14 for 24 h, and the ENO1 was assayed via Western blotting. […] (C) Molecular docking analysis of ENO1 and CAD-14. (D) Cells were treated with 0–0.8 µM CAD-14 for 24 h, and the p-38/P-p38 were assayed via Western blot. Histograms show the intensity ratio. Values represent the means ± SD. * p < 0.05, ** p < 0.01 versus “Ctrl” group.
# [3] = system: p38 pathway in A375 cells; test: Western blot of p38/P-p38; type: cell-based; details: A375, 0–0.8 µM, 24 h
# Protocol: as §3, §4
# A375 cells [4] = test: Cell cycle analysis by flow cytometry; type: cell-based; details: A375, 0–0.4 µM, 24 h, concentration-dependent
# Protocol: The A375 cells were incubated with CAD-14 (0–0.4 µM) for 24 h. The cells were collected, washed in PBS, and fixed in ice-cold 75% (v/v) ethanol overnight at –20 °C. The cells were re-suspended, and the DNA content was tested using flow cytometry.
# (§5) Figure 3 CAD-14 inhibited the proliferation of A375 cells. (A) The different tumor and normal cell lines were treated with 0–200 µM CAD-14 for 72 h, and then IC50 value was assayed. (B) Cells were treated with 0–0.02 µM CAD-14 for 14 days, and Giemsa staining was used to conduct colony formation assays; the histogram depicts the number of colonies. (C,D) Cells were treated with 0–0.8 µM CAD-14 for 24 h; then, the related proteins were tested via Western blotting. Histograms depict the intensity ratio. (E,F) Cells were treated with 0–0.4 µM CAD-14 for 24 h, then the DNA content of the cells was determined with a flow cytometry system. Histograms show the percentage of cells in G0/G1, G2/M, and S phase. Values represent the means ± SD. * p < 0.05, ** p < 0.01 versus “Ctrl” group.
# [5] = system: multiple types of cancer cells and normal cells; test: Specificity towards different tumor and normal cell lines; type: cell-based; details: 0–200 µM, 72 h; Figure 3A
# Protocol: as §1, §5
# [6] = system: Bak, Bcl-2 and survivin in A375 cells; test: Western blotting of apoptosis-related proteins; type: cell-based; details: A375, 0–0.8 µM, 24 h, dose-dependent
# Protocol: as §3, §5
# [7] = system: melanoma cell lines (A375, A875, SK-MEL-1); test: Initial screening of analogues against melanoma cell lines; type: cell-based; details: for activity in initial screening: A375, A875, SK-MEL-1, 0–50 µM, 72 h, Figure 2A–C
# Protocol: as §1, §2
# A375 cells [8] = test: Colony formation assay; type: cell-based; details: A375, 0–0.02 µM, 14 days, versus Ctrl
# Protocol: The A375 cells were plated onto six-well plates (500 cells/well), and after 24 h, CAD-14 (0–0.02 µM) was added to the medium and incubated for an additional 14 days. Cells were fixed in methanol and stained with Giemsa. The colonies were then scored and photographed.
# as §5
# [9] = Developmental/acute toxicity test of zebrafish embryos; type: in vivo; details: AB wild-type, in vivo; zebrafish embryos, 96 h exposure; read-out: median death concentration (IC50)
# Text: (§6) The AB-wild-type adult zebrafish (three months old) were purchased from the Institute of Aquatic Biology, Chinese Academy of Sciences (Wuhan, China). During breeding, male and female fish were placed in separate spawning boxes at a 1:1 ratio. Then, early in the morning, they were mixed and laid eggs. During the exposure period, 96-well plates containing normal embryos were randomly selected and viewed daily under a light microscope to assess the developmental toxicity.
# (§7) (A) The embryo morphology after CAD-14 treatment for 0–96 h. (B) Survival statistics in different time and concentration.
# zebrafish embryos = test: as above; type: in vivo; details: 96 h
# Text: as §6, §7
# SK-MEL-1 cells = test: CCK-8 cell viability, SK-MEL-1 melanoma cells; type: cell-based; details: Homo sapiens, 0–50 µM, 72 h
# Protocol: as §1, §2
# rats = details: intravenous injection; cited from earlier work
# hepatocytes [10] = details: rat, in vivo, 1100 mg/kg; cited from earlier work
# hepatocytes [11] = details: mouse, in vivo; cited from earlier work
molecule,measurement,setting,value
"O=C/C=C/c1c(F)c(F)c(F)c(F)c1F [CAD-14, (E)-3-(perfluorophenyl)acrylaldehyde]",tumor growth,"A375 cells [1]; 5 mg/kg/day, two weeks, compared with PBS group",can inhibit the tumor growth
same,tumor growth effect compared with dacarbazine,A375 cells [1]; CAD-14 5 mg/kg/day vs dacarbazine 10 mg/kg/day,the effect was better than dacarbazine
same,ENO1 expression in tumor tissues,"A375 cells [1]; immunofluorescent staining, Figure 5H",fewer ENO1 accumulated
same,IC50,A375 cells [2],580 nM
same,IC50,A875 cells,650 nM
same,thermal stability of ENO1 (temperature-dependent CETSA),"ENO1; 0.4 μM, A375 cell lysates",decreased the thermal stability of ENO1
same,stability of ENO1 protein,ENO1; Western blot 0–0.8 µM 24 h and CETSA,changed the stability of ENO1 protein in a temperature- and dose-responsive manner
same,phosphorylation of p38,[3],suppressed the phosphorylation of p38
same,total p38 protein levels,[3],did not affect its total protein levels
same,cell cycle arrest,A375 cells [4],markedly induced S phase arrest
same,specificity towards cell types,[5],inhibited A375 cells more effectively than other cancer cells and was less sensitive to normal cell lines
same,expression of anti-apoptotic protein Bcl-2,[6],substantially diminished
same,expression of anti-apoptotic protein survivin,[6],substantially diminished
same,expression of pro-apoptotic protein Bak,[6],strongly increased
same,activity in initial screening,[7],strong activity
same,effect relative to CA,[7]; times stronger than CA,80 times
same,effect relative to positive drug DTIC,"[7]; times stronger than DTIC, Figure 2D",~15 times
same,number of colonies,A375 cells [8],significantly reduced the number of colonies
same,LC50 (median lethal concentration) at 96 h,[9],83700 nM
same,Malformation Rates,zebrafish embryos; 8 μM,0.00%
same,Mortalities,zebrafish embryos; 8 μM,0.00%
same,Number of Deaths,zebrafish embryos; 8 μM,0
same,Number of Deformities,zebrafish embryos; 8 μM,0
same,Survival Number,zebrafish embryos; 8 μM,20
same,Malformation Rates,zebrafish embryos; 16 μM,0.00%
same,Mortalities,zebrafish embryos; 16 μM,0.00%
same,Number of Deaths,zebrafish embryos; 16 μM,0
same,Number of Deformities,zebrafish embryos; 16 μM,0
same,Survival Number,zebrafish embryos; 16 μM,20
same,Malformation Rates,zebrafish embryos; 32 μM,0.00%
same,Mortalities,zebrafish embryos; 32 μM,0.00%
same,Number of Deaths,zebrafish embryos; 32 μM,0
same,Number of Deformities,zebrafish embryos; 32 μM,0
same,Survival Number,zebrafish embryos; 32 μM,20
same,Malformation Rates,zebrafish embryos; 64 μM,0.00%
same,Mortalities,zebrafish embryos; 64 μM,0.00%
same,Number of Deaths,zebrafish embryos; 64 μM,0
same,Number of Deformities,zebrafish embryos; 64 μM,0
same,Survival Number,zebrafish embryos; 64 μM,20
same,Mortalities,zebrafish embryos; 128 μM,90.00%
same,Number of Deaths,zebrafish embryos; 128 μM,18
same,Number of Deformities,zebrafish embryos; 128 μM,0
same,Survival Number,zebrafish embryos; 128 μM,2
same,IC50,SK-MEL-1 cells,820 nM
"O=C/C=C/c1cccc(Cl)c1 [CAD-10, (E)-3-(3-chlorophenyl)acrylaldehyde]",activity in initial screening,[7],strong activity
"O=C/C=C/c1cccc2ccccc12 [CAD-2, (E)-3-(naphthalen-1-yl)acrylaldehyde]",activity in initial screening,[7],strong activity
"O=C/C=C/c1ccccc1 [CA, Cinnamaldehyde]",Ki67-positive cells in tumor tissues,"A375 cells [1]; staining of tumor tissues, Figure 5G",obvious decrease in Ki67-positive cells
same,lethal dose (LD50),rats,74.8 mg/kg
same,micronucleus rate in hepatocytes,hepatocytes [10],increased
same,micronucleus rate in hepatocytes,hepatocytes [11],increased
"O=C/C=C/c1cccc(Cl)c1Cl [CAD-12, (E)-3-(2,3-dichlorophenyl)acrylaldehyde]",activity in initial screening,[7],strong activity
"O=C/C=C/c1ccccc1Br [CAD-7, (E)-3-(2-bromophenyl)acrylaldehyde]",activity in initial screening,[7],strong activity
"O=C/C=C/c1cccnc1 [CAD-20, (E)-3-(pyridin-3-yl)acrylaldehyde]",activity in initial screening,[7],strong activity
(E)-3-(pyridin-3-yl)acrylaldehyde [CAD-19],activity in initial screening,[7],strong activity
